The record followed here is PMC8000448, “Inhibitory Effects of Schisandra Lignans on Cytochrome P450s and Uridine 5′-Diphospho-Glucuronosyl Transferases in Human Liver Microsomes” (Pharmaceutics, 2021).

The target in one data set is T1, CYP2A6 (Homo sapiens, UniProt P11509).
T1 construct: pooled HLMs (0.25 mg/mL); tissue XenoTech H2630; host or cells: pooled human liver microsomes, mixed gender
T1 sequence (P11509 1-494): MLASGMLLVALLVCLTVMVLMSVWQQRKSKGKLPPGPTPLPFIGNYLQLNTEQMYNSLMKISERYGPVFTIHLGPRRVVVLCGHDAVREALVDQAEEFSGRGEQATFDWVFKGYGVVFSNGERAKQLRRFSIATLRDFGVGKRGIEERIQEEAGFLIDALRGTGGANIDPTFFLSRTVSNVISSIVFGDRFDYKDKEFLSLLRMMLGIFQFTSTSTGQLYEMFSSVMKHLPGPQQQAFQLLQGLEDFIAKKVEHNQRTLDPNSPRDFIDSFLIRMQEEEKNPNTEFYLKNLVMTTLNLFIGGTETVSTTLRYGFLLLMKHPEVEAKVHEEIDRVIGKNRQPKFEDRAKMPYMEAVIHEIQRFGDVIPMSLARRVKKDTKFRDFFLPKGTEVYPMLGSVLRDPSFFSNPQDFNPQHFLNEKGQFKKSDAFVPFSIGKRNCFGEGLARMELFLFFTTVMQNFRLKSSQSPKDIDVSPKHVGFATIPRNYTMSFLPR
Nature of the data set: CYP2A6 inhibition in HLMs (coumarin). The class given is in vitro ADME. On the procedure:
(§1) Lignans were first dissolved in methanol. […] All microsomal incubations were performed in triplicate.

For the next data set, the target named is T2, CYP2C8 (Homo sapiens, UniProt P10632).
T2 construct: pooled HLMs (0.25 mg/mL); tissue XenoTech H2630; host or cells: pooled human liver microsomes, mixed gender
T2 sequence (P10632 1-490): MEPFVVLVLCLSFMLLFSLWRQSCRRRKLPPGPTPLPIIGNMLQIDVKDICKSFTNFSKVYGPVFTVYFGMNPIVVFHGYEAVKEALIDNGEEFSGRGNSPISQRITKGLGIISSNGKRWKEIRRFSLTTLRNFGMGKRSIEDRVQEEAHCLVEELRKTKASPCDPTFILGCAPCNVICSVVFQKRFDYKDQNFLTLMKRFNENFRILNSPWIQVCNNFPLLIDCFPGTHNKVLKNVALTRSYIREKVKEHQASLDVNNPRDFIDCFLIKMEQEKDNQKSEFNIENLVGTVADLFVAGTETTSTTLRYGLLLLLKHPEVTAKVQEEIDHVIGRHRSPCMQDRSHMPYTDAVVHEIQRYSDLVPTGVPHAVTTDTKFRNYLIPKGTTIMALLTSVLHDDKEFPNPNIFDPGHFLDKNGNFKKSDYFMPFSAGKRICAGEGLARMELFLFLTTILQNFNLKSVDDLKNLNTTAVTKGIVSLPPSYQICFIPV
Nature of the data set: CYP2C8 inhibition in HLMs (amodiaquine). Format: in vitro ADME. As to the method: as §1

The target in another data set is T3, UGT1A4 (Homo sapiens, UniProt P22310).
T3 construct: pooled HLMs (0.25 mg/mL); tissue XenoTech H2630; host or cells: pooled human liver microsomes, mixed gender
T3 sequence (P22310 29-534): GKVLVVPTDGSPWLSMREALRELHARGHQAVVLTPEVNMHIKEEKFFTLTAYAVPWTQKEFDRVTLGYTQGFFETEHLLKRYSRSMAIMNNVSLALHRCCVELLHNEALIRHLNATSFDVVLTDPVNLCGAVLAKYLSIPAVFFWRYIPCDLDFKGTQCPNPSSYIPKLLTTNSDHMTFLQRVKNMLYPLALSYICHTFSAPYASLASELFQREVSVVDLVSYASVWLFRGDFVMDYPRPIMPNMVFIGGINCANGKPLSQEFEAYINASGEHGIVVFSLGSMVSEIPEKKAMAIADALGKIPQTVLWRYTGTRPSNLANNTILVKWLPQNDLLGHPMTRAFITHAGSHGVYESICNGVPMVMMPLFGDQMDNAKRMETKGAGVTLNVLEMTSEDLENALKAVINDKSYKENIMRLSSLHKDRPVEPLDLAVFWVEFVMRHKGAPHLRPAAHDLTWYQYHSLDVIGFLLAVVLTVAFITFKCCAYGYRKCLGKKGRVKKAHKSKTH
Put plainly: UGT1A4 inhibition in HLMs (trifluoperazine). Conditions: average in triplicate, read-out: IC50, UGT 1A4. Format: in vitro ADME. On the procedure:
(§2) The inhibitory potential of six lignans on six UGT activities was evaluated using the previously developed cocktail method with slight modifications. […] These substrates are known to be selective for each UGT isoforms.

The target in the next data set is T4, UGT2B7 (Homo sapiens, UniProt P16662).
T4 construct: pooled HLMs (0.25 mg/mL); tissue XenoTech H2630; host or cells: pooled human liver microsomes, mixed gender
T4 sequence (P16662 24-529): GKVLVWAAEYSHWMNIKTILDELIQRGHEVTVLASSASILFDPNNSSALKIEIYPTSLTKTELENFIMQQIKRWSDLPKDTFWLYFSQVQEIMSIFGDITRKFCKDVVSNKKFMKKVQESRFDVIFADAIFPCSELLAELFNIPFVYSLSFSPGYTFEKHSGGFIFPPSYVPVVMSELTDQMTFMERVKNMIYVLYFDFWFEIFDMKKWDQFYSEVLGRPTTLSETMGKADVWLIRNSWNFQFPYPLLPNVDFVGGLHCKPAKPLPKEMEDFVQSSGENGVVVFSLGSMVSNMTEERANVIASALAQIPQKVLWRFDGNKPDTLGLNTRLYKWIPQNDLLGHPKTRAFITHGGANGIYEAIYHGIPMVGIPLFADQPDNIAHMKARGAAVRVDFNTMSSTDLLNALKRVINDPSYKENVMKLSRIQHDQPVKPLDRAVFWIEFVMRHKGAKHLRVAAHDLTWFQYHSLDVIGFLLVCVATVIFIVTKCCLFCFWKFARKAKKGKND
Nature of the data set: UGT2B7 inhibition in HLMs (naloxone). The class given is in vitro ADME. The settings on record: average in triplicate, read-out: IC50, UGT 2B6 (so in the source). On the procedure: as §2

For the next data set, the target named is CYP2C9 (Homo sapiens, UniProt P11712). Put plainly: CYP2C9 inhibition in HLMs (diclofenac).
Setting [1] is: 30 min pre-incubation with NADPH generating system, read-out: IC50 TDI, CYP2A6.
[2] abbreviates: reversible inhibition, read-out: IC50 RI, CYP2A6.
Where [3] appears, read: 30 min pre-incubation with NADPH generating system, read-out: IC50 TDI, CYP2C8.
Setting [4] is: IC50 TDI, 30 min pre-incubation with NADPH generating system.
The mark [5] stands for this setting: reversible inhibition, read-out: IC50 RI, CYP2C8.

Read-outs that look alike come from different tables or passages of the source.

Sequence of CYP2C9 (P11712 whole entry): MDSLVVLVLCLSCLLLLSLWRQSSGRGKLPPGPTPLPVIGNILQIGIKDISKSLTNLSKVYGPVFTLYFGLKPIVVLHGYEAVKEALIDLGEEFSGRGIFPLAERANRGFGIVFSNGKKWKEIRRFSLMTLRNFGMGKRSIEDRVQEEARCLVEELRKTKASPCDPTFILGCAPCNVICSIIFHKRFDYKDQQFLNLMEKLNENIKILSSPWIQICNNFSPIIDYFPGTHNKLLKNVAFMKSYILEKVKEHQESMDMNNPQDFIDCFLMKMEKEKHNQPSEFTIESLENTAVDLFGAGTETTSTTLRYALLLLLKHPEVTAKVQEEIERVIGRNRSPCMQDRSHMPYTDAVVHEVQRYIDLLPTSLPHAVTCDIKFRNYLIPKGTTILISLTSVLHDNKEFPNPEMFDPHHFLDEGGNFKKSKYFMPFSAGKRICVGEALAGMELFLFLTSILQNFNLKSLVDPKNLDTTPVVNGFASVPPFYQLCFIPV
Protocol for CYP2C9: Lignans were first dissolved in methanol. The final organic solvent concentration in the incubation media was ≤1.0% (v/v). The microsomal incubation was conducted using two cocktail sets containing non-interactive substrates: set A containing phenacetin, bupropion, amodiaquine, diclofenac, S-mephenytoin, and dextromethorphan as substrates for CYP1A2, CYP2B6, CYP2C8, CYP2C9, CYP2C19, and CYP2D6, respectively; and set B containing coumarin and chlorzoxazone as substrates for CYP2A6 and CYP2E1, and midazolam, nifedipine, and testosterone as substrates for CYP3A4 (Table 1). These substrates are known to be selective for each P450 isoforms. Incubation mixtures containing potassium phosphate buffer (0.1 M, pH 7.4), pooled HLMs (0.25 mg/mL), P450 probe substrate cocktails, and lignan (0~50 μM) were pre-incubated at 37 °C (5 min). Following pre-incubation, an NADPH generating system (1.3 mM NADP^+, 3.3 mM G6P, 1 unit/mL G6PDH, and 3.3 mM MgCl2) was added to initiate the reaction, and further incubated for 10 min. The reaction was quenched with 50 μL of cold acetonitrile containing internal standard (IS; 7 nM trimipramine). After centrifugation at 14,000 rpm (5 min at 4 °C), aliquots of supernatants were filtered through a 0.2 μm membrane filter and were measured by liquid chromatography-tandem mass spectrometry (LC-MS/MS). All microsomal incubations were performed in triplicate.

As to `COc1cc2c(c(OC)c1OC)-c1c(cc3c(c1OC)OCO3)C[C@H](C)[C@](C)(O)[C@H]2OC(=O)c1ccccc1` [Gomisin C, gomisin C], the IC50 at CYP2A6 (setting [1]) is above 50 µM; on CYP2A6 (setting [2]), above 50 µM; on CYP2C8 (setting [3]), 5.8 µM; on UGT1A4, above 50 µM; at UGT2B7 it was above 50 µM; at CYP2C9 (IC50 RI, reversible inhibition), above 50 µM. The compound also showed a concentration for half-maximal inhibition (IC50) on CYP2C9 (setting [4]) above 50 µM.

Consider `COc1cc2c(c(OC)c1OC)-c1c(cc3c(c1OC)OCO3)C[C@H](C)[C@H](C)C2` [Gomisin N, gomisin N], for which the IC50 was above 50 µM on CYP2A6 (setting [1]); 38.2 µM on CYP2A6 (setting [2]); 9.9 µM on CYP2C8 (setting [3]); 31.7 µM at CYP2C8 (setting [5]); above 50 µM on UGT1A4; above 50 µM on UGT2B7. Also, the IC50 at CYP2C9 (IC50 RI, reversible inhibition) was determined as 36.2 µM; against CYP2C9 (setting [4]), 10.9 µM. Moreover, the IC50 shift at 10 min on CYP2C8 (human, pooled human liver microsomes, pH 7.4, probe amodiaquine, RI/TDI fold shift) stood at 3.2.

As to `COc1cc2c(c(OC)c1OC)-c1c(cc(OC)c(OC)c1OC)C[C@](C)(O)[C@@H](C)C2` [Schisandrin, schisandrin], the IC50 is above 50 µM on CYP2A6 (setting [1]); 40.9 µM on CYP2A6 (setting [2]); above 50 µM at CYP2C8 (setting [3]); 22 µM on CYP2C8 (setting [5]); above 50 µM on UGT1A4; above 50 µM on UGT2B7. Moreover, the IC50 at CYP2C9 (IC50 RI, reversible inhibition) was 43 µM; at CYP2C9 (setting [4]), above 50 µM.

Regarding `COc1c2c(cc3c1-c1c(cc4c(c1OC)OCO4)C[C@H](C)[C@H](C)C3)OCO2` [Wuweizisu C, wuweizisu C], the IC50 was above 50 µM on CYP2A6 (setting [1]); above 50 µM at CYP2A6 (setting [2]); 14.6 µM on CYP2C8 (setting [3]); 21 µM at CYP2C8 (setting [5]); above 50 µM at UGT1A4; above 50 µM on UGT2B7. In addition, the IC50 turned out to be 8.9 µM against CYP2C9 (IC50 RI, reversible inhibition) and 3.6 µM against CYP2C9 (setting [4]).
